According to patent US8778871B2 (Takeda Pharmaceutical Company Limited, priority 2004, dated 2014):
Non-standard residues stand in square brackets, D forms with d. Residues, ends and D or L forms follow the SMILES beside them. No end group written: not given here. *: point of attachment. Phe(4-F) = N[C@@H](Cc1ccc(F)cc1)C(=O)O; Arg(Me) = CNC(=N)NCCC[C@H](N)C(=O)O; Hydrocinnamoyl = O=C(CCc1ccccc1)*; Bz = O=C(c1ccccc1)*; GABA = NCCCC(=O)O; azaGly = NNC(=O)O; βAla = NCCC(=O)O

Key:
[1] = Blood testosterone level decreasing effect in mature male rat (0.1 mM peptide solution); type: in vivo
Description: (§1) This peptide solution was filled in 5 ALZET osmotic pumps (Model 2001, 0.2 ml in volume, release rate: 0.001 ml/hr, DURECT Corporation). The ALZET pumps filled with the peptide solution were implanted subcutaneously in 5 CD(SD)IGS male rats of 9 weeks old after birth (Charles River Japan, Inc.) on the back under ether anesthesia by one pump for one animal. For negative control, distilled water (Otsuka Pharmaceutical Co., Ltd.) was filled in 5 ALZET osmotic pumps, which were similarly implanted in 5 male CD(SD)IGS rats (Charles River Japan, Inc.), respectively. These pump-implanted rats were fed for 6 days under normal feeding conditions. After weighing, the animal was decapitated to collect blood. After 0.03 ml/ml blood of aprotinin solution (Trasylol, Bayer) containing 0.1 mg/ml EDTA.2Na was added to blood, the mixture was centrifuged at 1,800 G for 25 minutes to isolate/recover plasma. From the plasma obtained, 0.05 ml was applied to radioimmunoassay (DPC.Total Testosterone Kit, Diagnostic Products Corporation) to measure the plasma testosterone level of each rat. The value below the limit of measurement (0.04 ng/ml of plasma level) in radioimmunoassay was treated as 0. A mean value of the testosterone levels from 5 rats receiving the peptide was calculated and a relative value (percent) of the mean value to a mean value from 5 rats receiving distilled water.
In a manner similar to TEST EXAMPLE 14, evaluation was made using 0.1 mM peptide solution and a part of the results obtained are shown in TABLE 30.

hOT7T175 [2] = biological target: T1, hOT7T175 (Homo sapiens, UniProt Q969F8, L364H); type: cell-based; conditions: hOT7T175/CHO, FLIPR, evaluation for 40 seconds after initiation of the reaction
T1 construct: expressed in transfected cells
Description: The intracellular Ca ion level-increasing activity was measured using FLIPR as in TEST EXAMPLE 2.

[3] = Blood testosterone level decreasing effect in mature male rat (2 mM peptide solution, ALZET osmotic pump); type: in vivo; conditions: 2 mM peptide solution in distilled water, ALZET osmotic pump s.c., 6 days, Tables 28 and 29
Description: as §1

hOT7T175 [4] = biological target: T1, hOT7T175; assay: Intracellular Ca ion level-increasing activity using FLIPR (180 seconds; specific activity to Metastin (1-54)); type: cell-based; conditions: hOT7T175/CHO, relative to Metastin (1-54) = 1
hOT7T175 [5] = biological target: T2, hOT7T175 (Homo sapiens, UniProt Q969F8); assay: as above; type: cell-based; conditions: hOT7T175/CHO, change in intracellular calcium ion level for 180 seconds, Tables 21-23
T2 construct: expressed in transfected cells

[6] = Action of reducing testosterone level in blood in mature male rat (1 mM peptide in 50% DMSO, ALZET osmotic pump); type: in vivo; conditions: 1 mM peptide in 50% DMSO aqueous solution, ALZET osmotic pump s.c., six days
Description: The peptide was encapsulated in five ALZET osmotic pump (Model 2001, 0.2 ml of volume, releasing rate 0.001 ml/hr, DURECT Corporation). The ALZET pumps encapsulated with the peptide solution were implanted to dorsal subcutaneous of five male CD (SD) IGS rat at nine weeks age (Charles River Japan, Inc.) anesthesized with ether for one pump to one rat. Separately, for negative controls, the ALZET osmotic pumps encapsulated with distilled water were implanted to five male CD (SD) IGS rat (Charles River Japan, Inc.) The rats were bred for six days under the normal conditions. After weighing, blood was collected by decapitation. To 1 ml of blood, 0.03 ml of aprotinin (Trasylol, Byer) solution containing 0.1 g/ml EDTA 2Na was added. The plasma was isolated by centrifugation at 1,800×g for 25 minutes and collected. The thus obtained plasma, 0.05 ml was effected by radioimmunoassay. (DPC Total Testosterone Kit, Diagnostic Products Corporation) to measure testosterone level in blood of each rat. The value beneath measuring limit of radioimmunoassay (0.04 ng/ml as concentration of plasma) was treated as zero. The mean values for testosterone level of five rats, to which the peptide was given, was calculated and the relative value (percentage) for the mean values of testosterone level of five rats, to which distilled watrer was given, was estimated.

T2 sequence (Q969F8 whole entry L364H): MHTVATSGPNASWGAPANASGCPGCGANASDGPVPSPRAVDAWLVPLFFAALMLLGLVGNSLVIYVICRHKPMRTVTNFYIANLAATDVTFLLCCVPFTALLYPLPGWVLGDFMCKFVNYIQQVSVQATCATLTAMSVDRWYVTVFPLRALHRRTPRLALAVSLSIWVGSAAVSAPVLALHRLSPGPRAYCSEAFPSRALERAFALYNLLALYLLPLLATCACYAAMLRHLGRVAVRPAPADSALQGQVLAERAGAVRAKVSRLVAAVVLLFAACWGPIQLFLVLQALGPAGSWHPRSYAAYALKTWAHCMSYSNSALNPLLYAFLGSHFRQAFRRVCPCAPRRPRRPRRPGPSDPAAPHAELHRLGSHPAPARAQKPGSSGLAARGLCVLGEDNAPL
T1 sequence (Q969F8 whole entry L364H): as above

| Molecule | Teststerone level in Blood [1] [%] | Specific Act. (EC50/MS10 EC50) (hOT7T175 [2]) | Teststerone level in Blood [3] [%] | Specific Act. (intracellular Ca ion level-increasing activity, specific activity to Metastin (1-54)) (hOT7T175 [4]) | intracellular Ca ion level-increasing activity [specific activity to Metastin (1-54)] (hOT7T175 [5]) | Testosterone level in Blood [6] [%] |
| --- | --- | --- | --- | --- | --- | --- |
| [dR][βAla][dY][dW]NTF[azaGly]L[Arg(Me)]W-NH2 [Compound No. 554] | 52 | 1.3 | – | – | – | – |
| Bz-NT[Phe(4-F)][azaGly]L[Arg(Me)]W-NH2 [Compound No. 523] | 72 | 1.1 | – | – | – | – |
| CC(C)C[C@H](NC(=O)NNC(=O)[C@H](Cc1ccccc1)NC(=O)[C@H](CO)NC(=O)[C@H](CC(N)=O)NC(=O)[C@H](Cc1c[nH]c2ccccc12)NC(=O)[C@H](CC(N)=O)NC(=O)[C@@H](N)Cc1ccc(O)cc1)C(=O)N[C@@H](CCCNC(=N)N)C(=O)N[C@@H](Cc1ccccc1)C(N)=O [Compound No. 176, Tyr-Asn-Trp-Asn-Ser-Phe-AzaGly-Leu-Arg-Phe-NH2] | – | 1.3 | 12 | 5 | – | – |
| Ac-D-Tyr-D-Pya(4)-Asn-Ser-Phe-AzaGly-Leu-Arg(Me)-Phe-NH2 [Compound No. 516] | 3 | 3.7 | – | – | – | – |
| 3-(3-Indolyl)propionyl-Phe-AzaGly-Leu-Arg(Me)-Trp-NH2 [Compound No. 354] | – | 0.8 | 43 | – | 10 | – |
| Ac-D-Tyr-D-Pya(4)-Asn-Thr-Phe-AzaGly-Leu-Arg(Me)-Trp-NH2 [Compound No. 562] | 11 | 1.0 | – | – | – | – |
| Ac-[dY][dW]NVF[azaGly]L[Arg(Me)]W-NH2 [Compound No. 564] | 66 | 0.5 | – | – | – | 2 |
| 3-(4-Hydroxyphenyl)propionyl-D-Trp-Asn-Thr-Phe-AzaGly-Leu-Arg(Me)-Trp-NH2 [Compound No. 559] | 17 | 0.3 | – | – | – | – |
| GuAmb-Phe-AzaGly-Leu-Arg(Me)-Trp-NH2 [Compound No. 334] | – | – | 40 | – | – | – |
| [dY][dW]NSF[azaGly]L[Arg(Me)]W-NH2 [Compound No. 540] | 55 | 0.7 | – | – | – | – |
| Ac-[dY][dW]NTF[azaGly]L[Arg(Me)]W-NH2 [Compound No. 550] | 2 | 0.7 | – | – | – | – |
| [dR][GABA][dY][dW]NTF[azaGly]L[Arg(Me)]W-NH2 [Compound No. 555] | 73 | 1.5 | – | – | – | 2 |
| Ac-[dY][dW]NTF[azaGly]L[Arg(Me)]F-NH2 [Compound No. 571] | 17 | 1.2 | – | – | – | – |
| CNC(=N)NCCC[C@H](NC(=O)[C@H](CC(C)C)NC(=O)NNC(=O)[C@H](Cc1ccccc1)NC(=O)[C@H](CO)NC(=O)[C@H](CC(N)=O)NC(=O)CCc1ccccc1)C(=O)N[C@@H](Cc1ccccc1)C(N)=O [Compound No. 269, 3-Phenylpropionyl-Asn-Ser-Phe-AzaGly-Leu-Arg(Me)-Phe-NH2] (Hydrocinnamoyl-NSF[azaGly]L[Arg(Me)]F-NH2) | – | 3.4 | 7 | – | 3 | – |
| D-Tyr-D-Pya(4)-Asn-Ser(Ac)-Phe-AzaGly-Leu-Arg(Me)-Trp-NH2 [Compound No. 547] | 65 | 2.5 | – | – | – | – |
| Bz-NSF[azaGly]L[Arg(Me)]W-NH2 [Compound No. 509] | – | 2.0 | 2 | – | 20 | – |
| CNC(=N)NCCC[C@H](NC(=O)[C@H](CC(C)C)NC(=O)CNC(=O)[C@H](Cc1ccccc1)NC(=O)[C@H](CO)NC(=O)[C@H](CC(N)=O)NC(=O)[C@H](Cc1c[nH]c2ccccc12)NC(=O)[C@H](CC(N)=O)NC(=O)[C@H](N)Cc1ccc(O)cc1)C(=O)N[C@@H](Cc1ccccc1)C(N)=O [Compound No. 141] | – | 1.6 | 31 | 10 | – | – |
